Where two headings read alike, the source gives them in different places. Starred links: 1 amine or outer side, 2 acyl side, 3 side chain; linkers in the order of their positions; H or OH if unused. Non-standard residues stand in square brackets, D forms with d. Residues, ends and D or L forms follow the SMILES beside them. ξ: configuration not given here. *: point of attachment. Oic = O=C(O)[C@@H]1C[C@@H]2CCCC[C@@H]2N1; Phe(4-Cl) = N[C@@H](Cc1ccc(Cl)cc1)C(=O)O; γGlu = O=C(O)[C@H](CCC(=O)[*:2])N[*:1]; d(β3hF) = N[C@@H](CC(=O)O)Cc1ccccc1; NMeR = CN[C@@H](CCCNC(=N)N)C(=O)O; Palmitoyl = CCCCCCCCCCCCCCCC(=O)*; Tridecanoyl = CCCCCCCCCCCCC(=O)*; hArg = N=C(N)NCCCC[C@H](N)C(=O)O; Cha = N[C@@H](CC1CCCCC1)C(=O)O; αMeL = CC(C)C[C@](C)(N)C(=O)O; αMeP = C[C@@]1(C(=O)O)CCCN1; Pip = O=C(O)[C@@H]1CCCCN1; β3hS = N[C@@H](CO)CC(=O)O; Ac6c = NC1(C(=O)O)CCCCC1; Nle = CCCC[C@H](N)C(=O)O; ξβ3hV = CC(C)C(N)CC(=O)O; AEEA = NCCOCCOCC(=O)O; Aib = CC(C)(N)C(=O)O
Legend:
human APJ receptor = molecular target: T1, human APJ receptor (Homo sapiens, UniProt P35414); assay: [35S] GTPγS assay, human APJ receptor; assay type: biochemical
T1 construct: expressed in transfected cells
T1 sequence (P35414 1-380): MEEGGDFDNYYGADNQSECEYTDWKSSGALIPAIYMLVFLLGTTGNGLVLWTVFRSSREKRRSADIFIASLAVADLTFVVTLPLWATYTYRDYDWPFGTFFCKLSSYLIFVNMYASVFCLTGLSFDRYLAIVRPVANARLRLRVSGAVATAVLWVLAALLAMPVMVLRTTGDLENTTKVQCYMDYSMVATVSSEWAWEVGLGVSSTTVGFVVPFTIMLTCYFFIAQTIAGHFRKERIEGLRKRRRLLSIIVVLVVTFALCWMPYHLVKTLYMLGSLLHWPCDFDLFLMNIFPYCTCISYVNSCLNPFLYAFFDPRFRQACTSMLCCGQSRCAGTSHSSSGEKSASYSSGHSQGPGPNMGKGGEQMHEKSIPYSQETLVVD

rat APJ receptor = molecular target: T2, rat APJ receptor (Rattus norvegicus, UniProt Q9JHG3); assay: [35S] GTPγS assay, rat APJ receptor; assay type: biochemical
T2 construct: expressed in transfected cells
T2 sequence (Q9JHG3 1-377): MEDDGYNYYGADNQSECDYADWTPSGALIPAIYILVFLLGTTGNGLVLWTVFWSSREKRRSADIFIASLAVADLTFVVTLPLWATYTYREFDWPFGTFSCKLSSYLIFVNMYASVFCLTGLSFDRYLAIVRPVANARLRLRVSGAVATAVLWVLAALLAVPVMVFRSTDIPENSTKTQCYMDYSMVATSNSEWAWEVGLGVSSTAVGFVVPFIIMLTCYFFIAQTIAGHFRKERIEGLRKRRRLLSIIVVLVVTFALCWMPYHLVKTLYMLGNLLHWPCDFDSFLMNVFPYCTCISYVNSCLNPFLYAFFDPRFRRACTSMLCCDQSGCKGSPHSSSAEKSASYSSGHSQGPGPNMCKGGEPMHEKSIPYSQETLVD
Protocol: The membranes were incubated with modified peptides in the assay buffer. […] Bound [^35S] GTPγS was separated from free radiolabel by filtration. The filter bound radioactivity was determined by liquid scintillation counting.

[1] = In vitro stability in rat plasma; assay type: in vitro ADME
Summary of the method: (§1)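 Peptide remaining was followed by high-resolution LC-MS of methanol-quenched, centrifuged samples with internal standard. Incubations were at 37° C. over 4 hr, peptides at 5 μM final in rat plasma or in rat liver or kidney homogenate.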

[2] = In vitro stability in rat kidney homogenate; assay type: in vitro ADME; settings: rat, tissue homogenate
Summary of the method: as §1

[3] = In vitro stability in rat liver homogenate; assay type: in vitro ADME; settings: tissue homogenate
Summary of the method: as §1

[4] = Table 16, read-out: EC50 Rat APJ Receptor
[5] = rat APJ receptor, read-out: EC50 Rat APJ Receptor

Row | Structure (SMILES) | EC50 (human APJ receptor) | EC50 (rat APJ receptor; [4]) | remaining at 4 h, 5 μM [1] | remaining at 4 h, 5 μM [2] | remaining at 4 h, 5 μM [3] | EC50 (rat APJ receptor; [5])
1 | CCCC[C@H](NC(=O)[C@@H]1C[C@@H]2CCCC[C@@H]2N1C(=O)CNC(=O)[C@H](CCCCN)NC(=O)[C@H](Cc1c[nH]cn1)NC(=O)[C@H](CO)NC(=O)[C@H](CC1CCCCC1)NC(=O)[C@H](CCCCNC(=N)N)NC(=O)[C@@H]1CCCN1C(=O)[C@H](CCCNC(=N)N)NC(=O)[C@H](CCC(N)=O)NC(=O)[C@H](CCCNC(=N)N)NC(C)=O)C(=O)N1CCC[C@H]1C(=O)N[C@@H](Cc1ccc(Cl)cc1)C(=O)O [compound 17] (Ac-RQRP[hArg][Cha]SHKG[Oic][Nle]P[Phe(4-Cl)]-OH) | 0.171 nM | – | – | – | – | –
2 | CCCCCCCCCCCCC(=O)N[C@@H](CCC(=O)NCCOCCOCC(=O)NCCOCCOCC(=O)N[C@@H](CCC(N)=O)C(=O)N[C@@H](CCCCNC(=N)N)C(=O)N1CCC[C@H]1C(=O)N(C)[C@@H](CCCNC(=N)N)C(=O)N[C@@H](CC1CCCCC1)C(=O)N[C@@H](CO)C(=O)N[C@@H](Cc1c[nH]cn1)C(=O)N[C@@H](CCCCN)C(=O)NCC(=O)N1[C@H](C(=O)N[C@@H](CCCC)C(=O)N2CCC[C@H]2C(=O)N[C@@H](Cc2ccc(Cl)cc2)C(=O)O)C[C@@H]2CCCC[C@@H]21)C(=O)O [compound 362] ({Tridecanoyl-γGlu-AEEA-AEEA}-Q[hArg]P[NMeR][Cha]SHKG[Oic][Nle]P[Phe(4-Cl)]-OH) | – | 3.75 nM | 79% | 2.5% | 39% | –
3 | CCCCCCCCCCCCC(=O)N[C@@H](CCC(=O)NCCOCCOCC(=O)NCCOCCOCC(=O)NC(CC(=O)N[C@@H](CCCNC(=N)N)C(=O)N1CCC[C@H]1C(=O)N(C)[C@@H](CCCNC(=N)N)C(=O)NC(CC(=O)N[C@@H](CO)C(=O)N[C@@H](Cc1c[nH]cn1)C(=O)N[C@@H](CCCCN)C(=O)NCC(=O)N1[C@H](C(=O)N[C@@H](CCCC)C(=O)N2CCC[C@H]2C(=O)N[C@@H](Cc2ccc(Cl)cc2)C(=O)O)C[C@@H]2CCCC[C@@H]21)C(C)C)C(C)C)C(=O)O (stereo partly drawn) [compound 394] ({Tridecanoyl-γGlu-AEEA-AEEA}-[ξβ3hV]RP[NMeR][ξβ3hV]SHKG[Oic][Nle]P[Phe(4-Cl)]-OH) | – | – | 86% | 2% | 8% | 1.5 nM
4 | CCCCCCCCCCCCC(=O)N[C@@H](CCC(=O)NCCOCCOCC(=O)NCCOCCOCC(=O)N[C@@H](CCC(N)=O)C(=O)N(C)[C@@H](CCCNC(=N)N)C(=O)N[C@@](C)(CC(C)C)C(=O)N[C@@H](CO)C(=O)N[C@@H](Cc1c[nH]cn1)C(=O)N[C@@H](CCCCN)C(=O)NCC(=O)N1[C@H](C(=O)N[C@@H](CCCC)C(=O)N2CCC[C@H]2C(=O)N[C@@H](Cc2ccc(Cl)cc2)C(=O)O)C[C@@H]2CCCC[C@@H]21)C(=O)O [compound 397] ({Tridecanoyl-γGlu-AEEA-AEEA}-Q[NMeR][αMeL]SHKG[Oic][Nle]P[Phe(4-Cl)]-OH) | – | 16.5 nM | 87% | 1% | 2% | –
5 | CCCCCCCCCCCCC(=O)N[C@@H](CCC(=O)NCCOCCOCC(=O)NCCOCCOCC(=O)N[C@@H](CCC(N)=O)C(=O)N[C@@H](CCCNC(=N)N)C(=O)N1CCC[C@H]1C(=O)N(C)[C@@H](CCCNC(=N)N)C(=O)N[C@@H](CC(C)C)C(=O)N[C@@H](CO)C(=O)N[C@@H](Cc1c[nH]cn1)C(=O)N[C@@H](CCCCN)C(=O)NCC(=O)N1CCC[C@H]1C(=O)N[C@@H](CCCC)C(=O)N1CCC[C@@]1(C)C(=O)N[C@@H](Cc1ccc(Cl)cc1)C(=O)O)C(=O)O [compound 401] | – | 0.351 nM | 6% | 3% | 1% | –
6 | CCCCCCCCCCCCC(=O)N[C@@H](CCC(=O)NCCOCCOCC(=O)NCCOCCOCC(=O)N[C@H](CCC(N)=O)C(=O)N[C@@H](CCCNC(=N)N)C(=O)N1CCC[C@H]1C(=O)N(C)[C@@H](CCCNC(=N)N)C(=O)N[C@@H](CC1CCCCC1)C(=O)N[C@@H](CO)CC(=O)N[C@@H](Cc1c[nH]cn1)C(=O)N[C@@H](CCCCN)C(=O)NCC(=O)N1[C@H](C(=O)N[C@@H](CCCC)C(=O)NC(C)(C)C(=O)N[C@@H](Cc2ccc(Cl)cc2)C(=O)O)C[C@@H]2CCCC[C@@H]21)C(=O)O [compound 500] ({Tridecanoyl-γGlu-AEEA-AEEA}-[dQ]RP[NMeR][Cha][β3hS]HKG[Oic][Nle][Aib][Phe(4-Cl)]-OH) | – | 3.14 nM | > 90% | < 1% | 13% | –
7 | CCCC[C@H](NC(=O)[C@@H]1CCCN1C(=O)CNC(=O)[C@H](CCCCN)NC(=O)[C@H](Cc1c[nH]cn1)NC(=O)[C@H](CO)NC(=O)[C@](C)(CC(C)C)NC(=O)[C@H](CCCCNC(=N)N)NC(=O)[C@@H]1CCCN1C(=O)[C@@H](CCCNC(=N)N)NC(=O)[C@H](CCC(N)=O)NC(=O)COCCOCCNC(=O)COCCOCCNC(=O)CC[C@H](NC(=O)CCCCC(=O)O)C(=O)O)C(=O)N1CCC[C@H]1C(=O)N[C@@H](Cc1ccc(Cl)cc1)C(=O)O [compound 515] | – | – | 2% | 6% | < 1% | 5.94 nM
8 | CCCCCCCCCCCCC(=O)N[C@@H](CCC(=O)NCCOCCOCC(=O)NCCOCCOCC(=O)N[C@@H](CCCNC(=N)N)C(=O)N[C@@H](CCC(N)=O)C(=O)N[C@@H](CCCC)C(=O)N1CCC[C@H]1C(=O)N[C@@H](CCCCNC(=N)N)C(=O)N[C@@H](CC1CCCCC1)C(=O)N[C@@H](CO)C(=O)N[C@@H](C)C(=O)N[C@@H](CCCCN)C(=O)NCC(=O)N1CCCC[C@H]1C(=O)N[C@@H](CCCC)C(=O)N1CCC[C@H]1C(=O)N[C@@H](Cc1ccc(Cl)cc1)C(=O)O)C(=O)O [compound 564] ({Tridecanoyl-γGlu-AEEA-AEEA}-RQ[Nle]P[hArg][Cha]SAKG[Pip][Nle]P[Phe(4-Cl)]-OH) | – | 1.49 nM | > 90% | < 1% | 2% | –
9 | CCCCCCCCCCCCCCCC(=O)N[C@@H](CCC(=O)NCCOCCOCC(=O)NCCOCCOCC(=O)N[C@H](CCC(N)=O)C(=O)N[C@@H](CCCNC(=N)N)C(=O)N1CCC[C@H]1C(=O)N(C)[C@@H](CCCNC(=N)N)C(=O)N[C@@H](CC1CCCCC1)C(=O)N[C@@H](CO)C(=O)N[C@@H](Cc1c[nH]cn1)C(=O)N[C@@H](CCCCN)C(=O)NCC(=O)N1[C@H](C(=O)N[C@@H](CCCC)C(=O)N2CCC[C@@]2(C)C(=O)N[C@@H](CC(=O)O)Cc2ccccc2)C[C@@H]2CCCC[C@@H]21)C(=O)O [compound 570] ({Palmitoyl-γGlu-AEEA-AEEA}-[dQ]RP[NMeR][Cha]SHKG[Oic][Nle][αMeP][d(β3hF)]-OH) | – | – | > 90% | 11% | 32% | 19.8 nM
10 | CCCCCCCCCCCCCCCC(=O)N[C@@H](CCC(=O)NCCOCCOCC(=O)NCCOCCOCC(=O)N[C@H](CCC(N)=O)C(=O)N[C@@H](CCCNC(=N)N)C(=O)N1CCC[C@H]1C(=O)N(C)[C@@H](CCCNC(=N)N)C(=O)N[C@@H](CC1CCCCC1)C(=O)N[C@@H](CO)C(=O)N[C@@H](Cc1c[nH]cn1)C(=O)N[C@@H](CCCCN)C(=O)NCC(=O)N1[C@H](C(=O)N[C@@H](CCCC)C(=O)N[C@@H](CC(=O)O)Cc2ccccc2)C[C@@H]2CCCC[C@@H]21)C(=O)O [compound 573] ({Palmitoyl-γGlu-AEEA-AEEA}-[dQ]RP[NMeR][Cha]SHKG[Oic][Nle][d(β3hF)]-OH) | – | – | 79% | 27% | 59% | 4.25 nM
11 | CCCCCCCCCCCCCCCC(=O)N[C@@H](CCC(=O)NCCOCCOCC(=O)NCCOCCOCC(=O)N[C@H](CCC(N)=O)C(=O)N[C@@H](CCCNC(=N)N)C(=O)N1CCC[C@H]1C(=O)N(C)[C@@H](CCCNC(=N)N)C(=O)N[C@@H](CC1CCCCC1)C(=O)N[C@@H](CO)C(=O)N[C@@H](Cc1c[nH]cn1)C(=O)N[C@@H](CCCCN)C(=O)NCC(=O)N1[C@H](C(=O)N[C@@H](CCCC)C(=O)NC2(C(=O)N[C@@H](Cc3ccc(Cl)cc3)C(=O)O)CCCCC2)C[C@@H]2CCCC[C@@H]21)C(=O)O [compound 584] ({Palmitoyl-γGlu-AEEA-AEEA}-[dQ]RP[NMeR][Cha]SHKG[Oic][Nle][Ac6c][Phe(4-Cl)]-OH) | – | – | 62% | 6% | 77% | 52.2 nM
